Numbers after ± are expanded uncertainties.
Legend:
[1] = xn = mol fraction of the nth substance listed; conditions: 101 kPa, Liquid
[2] = 101 kPa, Liquid

CO [methanol] + CCCCn1cc[n+](C)c1.[Cl-]
[1], x2 = 0
Conditions	mass density [kg/m3]
293.15 K	791.3 ± 0.48
298.15 K	786.58 ± 0.49
303.15 K	781.86 ± 0.5
308.15 K	777.11 ± 0.5
313.15 K	772.33 ± 0.51
318.15 K	767.52 ± 0.52

CC#N [acetonitrile] + CCCCn1cc[n+](C)c1.[Cl-]
[1], x2 = 0
Conditions	mass density [kg/m3]
293.15 K	782.04 ± 0.5
298.15 K	776.64 ± 0.51
303.15 K	771.21 ± 0.51
308.15 K	765.75 ± 0.52
313.15 K	760.25 ± 0.53
318.15 K	754.73 ± 0.54

CCCCn1cc[n+](C)c1.[Cl-] [1-butyl-3-methylimidazolium chloride] + CC#N
mass density [kg/m3], [1]
Conditions	x1 = 0.0303	x1 = 0.0797	x1 = 0.1308	x1 = 0.1806	x1 = 0.235	x1 = 0.2914	x1 = 0.3717	x1 = 0.439
293.15 K	815.47 ± 0.47	859.07 ± 0.46	894.46 ± 0.48	922.76 ± 0.55	948.31 ± 0.65	970.09 ± 0.8	995.09 ± 1.1	1012.49 ± 1.4
298.15 K	810.4 ± 0.48	854.38 ± 0.46	890.07 ± 0.49	918.62 ± 0.55	944.36 ± 0.65	966.32 ± 0.8	991.52 ± 1.1	1009.08 ± 1.4
303.15 K	805.29 ± 0.48	849.67 ± 0.47	885.68 ± 0.5	914.46 ± 0.55	940.39 ± 0.65	962.55 ± 0.8	987.95 ± 1.1	1005.66 ± 1.4
308.15 K	800.18 ± 0.49	844.95 ± 0.48	881.27 ± 0.5	910.3 ± 0.56	936.47 ± 0.66	958.78 ± 0.8	984.38 ± 1.1	1002.25 ± 1.4
313.15 K	795.05 ± 0.5	840.21 ± 0.48	876.86 ± 0.51	906.14 ± 0.56	932.51 ± 0.66	955.02 ± 0.8	980.83 ± 1.1	998.86 ± 1.4
318.15 K	789.88 ± 0.51	835.48 ± 0.49	872.45 ± 0.51	901.98 ± 0.57	928.57 ± 0.66	951.26 ± 0.8	977.28 ± 1.1	995.46 ± 1.4

CN(C)C=O [dimethylformamide] + CCCCn1cc[n+](C)c1.[Cl-]
[1], x2 = 0
Conditions	mass density [kg/m3]
293.15 K	948.63 ± 0.25
298.15 K	943.86 ± 0.26
303.15 K	939.08 ± 0.27
308.15 K	934.29 ± 0.27
313.15 K	929.48 ± 0.28
318.15 K	924.68 ± 0.29

CCCCn1cc[n+](C)c1.[Cl-] [1-butyl-3-methylimidazolium chloride] + CN(C)C=O
mass density [kg/m3], [1]
Conditions	x1 = 0.0332	x1 = 0.0835	x1 = 0.1303	x1 = 0.1822	x1 = 0.2289	x1 = 0.3069	x1 = 0.3879	x1 = 0.4488
293.15 K	961.92 ± 0.26	978 ± 0.31	990.54 ± 0.37	1002.71 ± 0.48	1012.04 ± 0.62	1025.51 ± 0.91	1037.1 ± 1.3	1044.53 ± 1.6
298.15 K	957.33 ± 0.27	973.63 ± 0.31	986.33 ± 0.38	998.67 ± 0.47	1008.12 ± 0.61	1021.78 ± 0.9	1033.54 ± 1.3	1041.06 ± 1.6
303.15 K	952.73 ± 0.28	969.25 ± 0.32	982.13 ± 0.38	994.62 ± 0.48	1004.21 ± 0.6	1018.05 ± 0.89	1029.98 ± 1.3	1037.61 ± 1.6
308.15 K	948.12 ± 0.28	964.87 ± 0.32	977.91 ± 0.39	990.58 ± 0.48	1000.3 ± 0.59	1014.34 ± 0.88	1026.42 ± 1.2	1034.18 ± 1.6
313.15 K	943.52 ± 0.29	960.48 ± 0.33	973.71 ± 0.39	986.54 ± 0.49	996.4 ± 0.6	1010.63 ± 0.87	1022.89 ± 1.2	1030.77 ± 1.6
318.15 K	938.89 ± 0.3	956.09 ± 0.34	969.5 ± 0.4	982.51 ± 0.49	992.5 ± 0.6	1006.94 ± 0.86	1019.36 ± 1.2	1027.36 ± 1.5

CN(C)C=O [dimethylformamide]
[2]
Conditions	mass density [kg/m3]
293.15 K	948.63 ± 0.25
298.15 K	943.86 ± 0.26
303.15 K	939.08 ± 0.27
308.15 K	934.29 ± 0.27
313.15 K	929.48 ± 0.28
318.15 K	924.68 ± 0.29

CC#N [acetonitrile]
[2]
Conditions	mass density [kg/m3]
293.15 K	782.04 ± 0.5
298.15 K	776.64 ± 0.51
303.15 K	771.21 ± 0.51
308.15 K	765.75 ± 0.52
313.15 K	760.25 ± 0.53
318.15 K	754.73 ± 0.54

CCCCn1cc[n+](C)c1.[Cl-] [1-butyl-3-methylimidazolium chloride] + O
mass density [kg/m3], [1]
Conditions	x1 = 0.0121	x1 = 0.0381	x1 = 0.0819	x1 = 0.1109	x1 = 0.1399	x1 = 0.2489	x1 = 0.2977	x1 = 0.4083
293.15 K	1007.06 ± 0.2	1024.73 ± 0.26	1046.21 ± 0.36	1055.73 ± 0.43	1062.54 ± 0.51	1076.98 ± 0.85	1080.14 ± 1	1084.32 ± 1.6
298.15 K	1005.53 ± 0.19	1022.46 ± 0.25	1043.25 ± 0.36	1052.62 ± 0.43	1059.39 ± 0.5	1073.95 ± 0.85	1077.15 ± 1	1081.43 ± 1.6
303.15 K	1003.8 ± 0.19	1020.07 ± 0.25	1040.24 ± 0.35	1049.46 ± 0.42	1056.2 ± 0.5	1070.89 ± 0.84	1074.16 ± 1	1078.53 ± 1.5
308.15 K	1001.89 ± 0.19	1017.57 ± 0.24	1037.17 ± 0.34	1046.28 ± 0.41	1052.99 ± 0.49	1067.82 ± 0.83	1071.15 ± 1	1075.63 ± 1.5
313.15 K	999.81 ± 0.19	1014.95 ± 0.24	1034.06 ± 0.34	1043.06 ± 0.41	1049.76 ± 0.48	1064.72 ± 0.82	1068.14 ± 1	1072.73 ± 1.5
318.15 K	997.57 ± 0.19	1012.24 ± 0.24	1030.89 ± 0.33	1039.81 ± 0.4	1046.48 ± 0.48	1061.63 ± 0.81	1065.09 ± 1	1069.82 ± 1.5

CCCCn1cc[n+](C)c1.[Cl-] [1-butyl-3-methylimidazolium chloride] + CO
mass density [kg/m3], [1]
Conditions	x1 = 0.0101	x1 = 0.0506	x1 = 0.1	x1 = 0.1665	x1 = 0.1951	x1 = 0.2398	x1 = 0.2991	x1 = 0.3771	x1 = 0.482
293.15 K	805.87 ± 0.47	852.64 ± 0.43	894.1 ± 0.44	935.48 ± 0.51	949.82 ± 0.55	968.61 ± 0.65	989.02 ± 0.82	1010.45 ± 1.1	1031.45 ± 1.7
298.15 K	801.3 ± 0.47	848.46 ± 0.44	890.18 ± 0.44	931.83 ± 0.51	946.25 ± 0.55	965.16 ± 0.65	985.68 ± 0.82	1007.23 ± 1.1	1028.33 ± 1.7
303.15 K	796.71 ± 0.48	844.24 ± 0.45	886.26 ± 0.45	928.17 ± 0.51	942.69 ± 0.56	961.71 ± 0.65	982.33 ± 0.82	1004.01 ± 1.1	1025.22 ± 1.7
308.15 K	792.11 ± 0.49	840.01 ± 0.45	882.35 ± 0.45	924.53 ± 0.52	939.14 ± 0.56	958.26 ± 0.65	979.01 ± 0.82	1000.8 ± 1.1	1022.12 ± 1.7
313.15 K	787.49 ± 0.49	835.76 ± 0.46	878.44 ± 0.46	920.9 ± 0.52	935.6 ± 0.56	954.83 ± 0.66	975.69 ± 0.82	997.6 ± 1.1	1019.03 ± 1.7
318.15 K	782.83 ± 0.5	831.56 ± 0.47	874.52 ± 0.47	917.27 ± 0.53	932.06 ± 0.57	951.4 ± 0.66	972.38 ± 0.82	994.41 ± 1.1	1015.96 ± 1.7

CO [methanol]
[2]
Conditions	mass density [kg/m3]
293.15 K	791.3 ± 0.48
298.15 K	786.58 ± 0.49
303.15 K	781.86 ± 0.5
308.15 K	777.11 ± 0.5
313.15 K	772.33 ± 0.51
318.15 K	767.52 ± 0.52

Source: the NIST ThermoML archive (doi:10.1021/je900733j)
